Holding throughout (type): functional
The subject of assay [1] is Escherichia coli. Briefly: Antibacterial activity against gram-negative wild type Escherichia coli MG1655 by CLSI broth microdilution method.
The next assay has as its system Staphylococcus aureus. As to the kind of experiment: Antibacterial activity against methicillin-susceptible Staphylococcus aureus ATCC 29213 by CLSI broth microdilution method. In general terms: Dilution methods test growth across graded concentrations, often in twofold steps.
The subject of assay [2] is Escherichia coli. Briefly: Antibacterial activity against gram-negative Escherichia coli MG1655 expressing AcrAB-TolC efflux pump deletion mutant by CLSI broth microdilution method.
Assay [3] deals with Escherichia coli. Briefly: Efflux index, ratio of MIC for wild type Escherichia coli MG1655 to MIC for Escherichia coli MG1655 expressing AcrAB-TolC efflux pump deletion mutant.
In assay [4] the test system is Escherichia coli. As to the kind of experiment: Antibacterial activity against gram-negative Escherichia coli MG1655 membrane permeabilized mutant in presence of polymyxinnonapeptide by CLSI broth microdilution method.
Assay [5] relates to Escherichia coli. As to the kind of experiment: Permeability index, ratio of MIC for wild type Escherichia coli MG1655 to MIC for Escherichia coli MG1655 membrane permeabilized mutant in presence of polymyxinnonapeptide.

≈ marks a conversion by molar mass, not a printed value.

This is an account of results in ChEMBL document CHEMBL4177666, “Compound design guidelines for evading the efflux and permeation barriers of Escherichia coli with the oxazolidinone class of antibacterials: Test case for a general approach to improving whole cell Gram-negative activity” (Bioorg Med Chem Lett, 2017).

As to `NC[C@H]1CN(c2ccc(N3CCOCC3)c(F)c2)C(=O)O1`, the MIC in the assay with Escherichia coli [1] is over 256 µg/mL; in the assay with Staphylococcus aureus, over 64 µg/mL.

As to `NCc1ccc(-c2ccc(N3C[C@H](Cn4cc(O)nn4)OC3=O)cc2F)cc1`, the results for the MIC in the assay on Escherichia coli [1], with Escherichia coli [2] and against Staphylococcus aureus were over 64 µg/mL, 32 µg/mL (≈ 83.5 µM) and 8 µg/mL (≈ 20.9 µM), respectively. For the same compound, the Ratio in the assay with Escherichia coli [3] is on record as over 2.

Take `NCc1ccc(-c2ccc(N3C[C@H](CN4C(=O)CNC4=O)OC3=O)cc2F)cc1`: the minimal inhibitory concentration (MIC) was over 256 µg/mL in the assay with Escherichia coli [1] and over 64 µg/mL in the assay with Staphylococcus aureus.

As to `N/C(=N\O)c1ccc(-c2ccc(N3C[C@H](CO)OC3=O)cc2F)cn1`, the MIC in the assay with Escherichia coli [1] is over 256 µg/mL; in the assay on Escherichia coli [4], 16 µg/mL; with Escherichia coli [2], 16 µg/mL (≈ 46.2 µM); against Staphylococcus aureus it was 1 µg/mL (≈ 2.89 µM). The Ratio in the assay on Escherichia coli [3] and in the assay on Escherichia coli [5] was over 16 each time.

Regarding `O=C1CCc2cc(-c3ccc(N4C[C@H](CO)OC4=O)cc3F)cc(O)c21`, the MIC against Escherichia coli [1] is over 256 µg/mL; in the assay with Escherichia coli [4] it was 64 µg/mL; in the assay on Escherichia coli [2], 8 µg/mL (≈ 22.4 µM); against Staphylococcus aureus, 1 µg/mL (≈ 2.8 µM). The Ratio was 8 in the assay on Escherichia coli [3] and over 32 with Escherichia coli [5].

Regarding `CCOc1cnnn1C[C@H]1CN(c2ccc(-c3ccc(CN)cc3)c(F)c2)C(=O)O1`, the MIC against Escherichia coli [1] is over 256 µg/mL; in the assay with Escherichia coli [4] it was 256 µg/mL; in the assay on Escherichia coli [2], 128 µg/mL (≈ 311 µM); against Staphylococcus aureus, 32 µg/mL (≈ 77.8 µM). Further, the Ratio with Escherichia coli [3] was over 2; with Escherichia coli [5], over 1.

For `O=C1O[C@@H](CO)CN1c1ccc(O)cc1F`, the MIC with Escherichia coli [1] was over 256 µg/mL; in the assay on Staphylococcus aureus, over 64 µg/mL.

With `NCc1ccc(-c2ccc(N3C[C@H](Cn4nc[nH]c4=O)OC3=O)cc2F)cc1`, the MIC against Escherichia coli [1] was over 64 µg/mL; against Staphylococcus aureus, 32 µg/mL (≈ 83.5 µM).

Turning to `COc1cc(N2C[C@H](CO)OC2=O)ccc1-c1ccc(CN)cc1`, the MIC in the assay with Escherichia coli [1] is over 256 µg/mL; in the assay on Staphylococcus aureus, over 64 µg/mL.

As to `NCc1ccc(-c2ccc(N3C[C@H](CN4CCOC4=O)OC3=O)cc2F)cc1`, the MIC was over 256 µg/mL in the assay on Escherichia coli [1], 256 µg/mL (≈ 664 µM) in the assay with Escherichia coli [2] and 16 µg/mL (≈ 41.5 µM) with Staphylococcus aureus. In the assay with Escherichia coli [3], the Ratio result was “>=2”.

Take `NCc1cc(F)c(-c2ccc(N3C[C@H](CO)OC3=O)cc2F)cc1O`: the figures for the Ratio in the assay with Escherichia coli [3] and in the assay with Escherichia coli [5] were 1 and 2, respectively.

As for `N#Cc1ccc(-c2ccc(N3C[C@H](CN)OC3=O)cc2F)cc1O`, the MIC in the assay with Escherichia coli [1] is over 256 µg/mL; in the assay with Staphylococcus aureus, 64 µg/mL (≈ 196 µM).

With `NCc1ccc(-c2ccc(N3C[C@H](Cn4nncc4C(=O)O)OC3=O)cc2F)cc1`, the figures for the MIC with Escherichia coli [1] and against Staphylococcus aureus were over 128 µg/mL and 16 µg/mL (≈ 38.9 µM), respectively.

On to `CC(=O)NC[C@H]1CN(c2ccc(-c3cnc(C#N)c(O)c3)c(F)c2)C(=O)O1`, for which the MIC was over 256 µg/mL against Escherichia coli [1], 128 µg/mL (≈ 346 µM) against Escherichia coli [2] and 32 µg/mL (≈ 86.4 µM) in the assay on Staphylococcus aureus. Moreover, in the assay on Escherichia coli [3], the Ratio is over 2.

Take `N#Cc1ccc(-c2ccc(N3C[C@H](CO)OC3=O)nc2)cc1O`: the MIC against Escherichia coli [1] was over 256 µg/mL; in the assay on Staphylococcus aureus it was over 64 µg/mL.

As for `NCc1ccc(-c2ccc(N3C[C@H](C(N)=O)OC3=O)cc2F)cc1`, the values for the MIC against Escherichia coli [1] and with Staphylococcus aureus were over 256 µg/mL and over 64 µg/mL, respectively.

Take `O=C1O[C@@H](CO)CN1c1ccc(-c2ccccc2F)cc1`: the values for the MIC against Escherichia coli [1], against Escherichia coli [2] and in the assay with Staphylococcus aureus were over 64 µg/mL, 8 µg/mL (≈ 27.8 µM) and 4 µg/mL (≈ 13.9 µM), respectively. Further, the Ratio with Escherichia coli [3] is recorded as over 8.

Turning to `NCc1ccc(-c2ccc(N3C[C@H](Cn4cc(C(=O)O)nn4)OC3=O)cc2F)cc1`, the MIC in the assay on Escherichia coli [1] is over 256 µg/mL; in the assay on Staphylococcus aureus it was over 64 µg/mL.

As to `NCc1ccc(-c2ccc(N3C[C@H](CO)OC3=O)cc2F)cc1O`, the Ratio with Escherichia coli [3] is 10.2; in the assay with Escherichia coli [5], 2.6.

For `COc1ccc(N2C[C@H](CO)OC2=O)cc1O`, the MIC was over 256 µg/mL in the assay on Escherichia coli [1] and over 64 µg/mL against Staphylococcus aureus.

In the case of `NCc1ccc(-c2ccc(N3C[C@H](Cn4nncc4CO)OC3=O)cc2F)cc1`, the MIC with Escherichia coli [1] was over 256 µg/mL; against Staphylococcus aureus it was over 64 µg/mL.

`NC[C@H]1CN(c2ccc(-c3ccc(F)c(O)c3)c(F)c2)C(=O)O1`: the MIC in the assay with Escherichia coli [1] worked out at 256 µg/mL (≈ 799 µM); with Escherichia coli [4], 256 µg/mL; against Escherichia coli [2], 256 µg/mL (≈ 799 µM); in the assay with Staphylococcus aureus, 64 µg/mL (≈ 200 µM). Further, the Ratio in the assay on Escherichia coli [3] and in the assay with Escherichia coli [5] was 1 throughout.

Consider `O=C(O)c1ccc(N2C[C@H](CO)OC2=O)cc1F`, for which the MIC against Escherichia coli [1] was over 256 µg/mL; in the assay on Staphylococcus aureus it was over 64 µg/mL.

On to `NCc1ccc(-c2ccc(N3C[C@H](CO)OC3=O)cc2O)cc1`, for which the MIC is over 256 µg/mL against Escherichia coli [1] and over 64 µg/mL in the assay on Staphylococcus aureus.

As to `COc1ccccc1-c1ccc(N2C[C@H](CO)OC2=O)cc1`, the MIC was over 64 µg/mL in the assay with Escherichia coli [1] and 64 µg/mL (≈ 214 µM) against Staphylococcus aureus.

On to `NCCC#Cc1ccc(N2C[C@H](CO)OC2=O)cc1F`, for which the MIC was over 256 µg/mL with Escherichia coli [1] and over 64 µg/mL in the assay on Staphylococcus aureus.

With `N/C(=N\O)c1ccc(-c2ccc(N3C[C@H](CO)OC3=O)cc2F)cc1O`, the Ratio came out at 1 in the assay with Escherichia coli [3] and 2 with Escherichia coli [5].

Turning to `NC(/C=C/c1ccc(N2C[C@H](CO)OC2=O)cc1F)=N\O`, the MIC against Escherichia coli [1] was over 128 µg/mL; with Staphylococcus aureus, over 64 µg/mL.

Turning to `NCc1ccc(-c2ccc(N3C[C@H](C(=O)O)OC3=O)cc2F)cc1`, the MIC against Escherichia coli [1] was over 256 µg/mL; against Staphylococcus aureus it was over 64 µg/mL.

Consider `NCc1ccc(-c2ccc(N3C[C@H](Cn4cc(CO)nn4)OC3=O)cc2F)cc1`, for which the MIC came out at 256 µg/mL (≈ 644 µM) in the assay with Escherichia coli [1], 128 µg/mL in the assay on Escherichia coli [4], 64 µg/mL (≈ 161 µM) against Escherichia coli [2] and 16 µg/mL (≈ 40.3 µM) with Staphylococcus aureus. In the assay on Escherichia coli [5], the Ratio worked out at 2.

As to `O=C1O[C@@H](CO)CN1c1ccc(-c2ccc(N3C[C@@H](CO)OC3=O)nc2)c(F)c1`, the MIC in the assay with Escherichia coli [1] was over 128 µg/mL; in the assay with Staphylococcus aureus, 32 µg/mL (≈ 79.3 µM).

Regarding `CCOc1cn(C[C@H]2CN(c3ccc(-c4ccc(CN)cc4)c(F)c3)C(=O)O2)nn1`, the values for the MIC with Escherichia coli [1], in the assay on Escherichia coli [2] and against Staphylococcus aureus were over 64 µg/mL, 32 µg/mL (≈ 77.8 µM) and 16 µg/mL (≈ 38.9 µM), respectively. Moreover, the Ratio in the assay with Escherichia coli [3] was over 4.

For `O=C1O[C@@H](CO)CN1c1ccc(-c2ccc(F)c(O)c2)[n+]([O-])c1`, the values for the MIC in the assay on Escherichia coli [1] and in the assay with Staphylococcus aureus were over 256 µg/mL and 64 µg/mL (≈ 200 µM), respectively.

Regarding `O=C1O[C@@H](CO)CN1c1ccc(-c2ccc([N+](=O)[O-])c(O)c2)c(F)c1`, the Ratio with Escherichia coli [3] and with Escherichia coli [5] was 1 in each case.

As to `NCc1ccc(-c2ccc(N3C[C@H](Cn4nncc4O)OC3=O)cc2F)cc1`, the MIC in the assay with Escherichia coli [1] and against Staphylococcus aureus was over 64 µg/mL in each case.

Consider `N#Cc1cc(O)cc(-c2ccc(N3C[C@H](Cn4ccnn4)OC3=O)cc2F)c1`, for which the MIC in the assay with Escherichia coli [1] was over 256 µg/mL; with Escherichia coli [4] it was 128 µg/mL; with Escherichia coli [2], 64 µg/mL (≈ 169 µM); with Staphylococcus aureus, 8 µg/mL (≈ 21.1 µM). Further, the Ratio in the assay with Escherichia coli [3] was over 4; in the assay on Escherichia coli [5] it was over 2.

With `N#Cc1cc(O)cc(-c2ccc(N3C[C@H](Cn4nccn4)OC3=O)cc2F)c1`, the MIC in the assay on Escherichia coli [1] is over 256 µg/mL; with Escherichia coli [4], 64 µg/mL; against Escherichia coli [2], 64 µg/mL (≈ 169 µM); with Staphylococcus aureus, 32 µg/mL (≈ 84.4 µM). Further, the Ratio in the assay on Escherichia coli [3] and in the assay with Escherichia coli [5] was over 4 in each case.

Regarding `NCc1ccc(-c2ccc(N3C[C@H](Cn4cc(CN)nn4)OC3=O)cc2F)cc1`, the MIC is over 256 µg/mL in the assay with Escherichia coli [1], 128 µg/mL in the assay on Escherichia coli [4], 128 µg/mL (≈ 323 µM) in the assay on Escherichia coli [2] and 8 µg/mL (≈ 20.2 µM) against Staphylococcus aureus. Moreover, the Ratio in the assay on Escherichia coli [3] and in the assay on Escherichia coli [5] was over 2 in each case.

On to `O=C1O[C@@H](CO)CN1c1ccc(O)c(F)c1`, for which the MIC in the assay with Escherichia coli [1] is over 256 µg/mL; in the assay on Staphylococcus aureus, over 64 µg/mL.

`N/C(=N\O)c1ccc(-c2ccc(N3C[C@H](CNC(=O)C(F)(F)F)OC3=O)cc2F)cc1O`: the figures for the MIC with Escherichia coli [1] and against Staphylococcus aureus were over 256 µg/mL and over 64 µg/mL, respectively.

In general, MIC refers to the least concentration at which growth counts as inhibited.
